Like-named read-outs stand apart in the source and are kept apart here. Starred links: 1 amine or outer side, 2 acyl side, 3 side chain; linkers in the order of their positions; H or OH if unused. Positions of bridges follow the written chain, without caps; N, C: chain ends. Non-standard residues stand in square brackets, D forms with d. Residues, ends and D or L forms follow the SMILES beside them. Groups on a side chain read outwards from the residue. *: point of attachment. Trp(1-Me) = Cn1cc(C[C@H](N)C(=O)O)c2ccccc21; Abu(4-yl) = O=C([C@H](CC[*:3])N[*:1])[*:2]; C18 diacid = O=C(O)CCCCCCCCCCCCCCCCC(=O)*; γGlu = O=C(O)[C@H](CCC(=O)[*:2])N[*:1]; AEEA = NCCOCCOCC(=O)O; Sar = CNCC(=O)O
Columns and labels:
[1] = test system: classical complement pathway; test: In vitro haemolysis assay (inhibition of classical complement pathway); format: cell-based, human; conditions: Table 3; human serum, sensitized sheep red blood cells; read-out: IC50[nM], in vitro analysis of inhibition of hemolysis
Method in brief: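 Serially diluted compound (9 points) was preincubated 15 min at room temperature with diluted human serum, titrated per batch to give 70-90% maximal haemolysis, in Tris/casein buffer pH 7.4 with Mg2+/Ca2+. Antibody-sensitized sheep erythrocytes were then added for 30 min at 37° C, and the reaction was stopped with EDTA. Haemolysis was read at A405, with IC50 from 4PL fit.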

Human C3 = biological target: T1, Human C3 (Homo sapiens, UniProt P01024); test: Affinity measurement by surface plasmon resonance (SPR) with immobilized C3; format: binding; conditions: Table 7; immobilized C3, 25° C., pH 7.4
T1 construct: purchased Complement tech A1 13c (so in the source)

in vivo = test: in vivo; design: species or system Cynomolgus monkeys (Macaca fascicularis); conditions: male, cynomolgus monkey, sc, 1840 nmol/kg; for half-life: t½
Method in brief: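 Healthy male cynomolgus monkeys dosed once subcutaneously at 1840 nmol/kg in 20 mM phosphate pH 7.5 with mannitol. Serum sampled pre-dose to 120 h and total drug measured by SPE and LC-MS/MS. Terminal half-life calculated non-compartmentally as ln(2)/λz from the terminal log-linear phase.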

[2] = Solubility test at 10 mg/mL (visual inspection and light scattering); format: physicochemical; conditions: for Solubility, Condition 1 Acetate pH 4: 10 mg/mL compound in 100 mM acetate pH 4; for Solubility, Condition 2 Acetate pH 5: 10 mg/mL compound in 100 mM acetate pH 5; for Solubility, Condition 3 Phosphate pH 6: 10 mg/mL compound in 100 mM phosphate pH 6; for Solubility, Condition 4 Phosphate pH 7: 10 mg/mL compound in 100 mM phosphate pH 7; for Solubility, Condition 5 Phosphate pH 7.5: 10 mg/mL compound in 100 mM phosphate pH 7.5
[3] = format: physicochemical; conditions: 50 mg/mL peptide; for Covalent oligomer content after 14 days 40° C. (%), F1 / Purity after 14 days 40° C. (%), F1: F1: 20 mM phosphate pH 5.5; for Covalent oligomer content after 14 days 40° C. (%), F1 / Covalent oligomer content after 14 days 40° C. (%), F2: denaturing SEC; for Purity after 14 days 40° C. (%), F1 / Purity after 14 days 40° C. (%), F2 / Purity after 14 days 40° C. (%), F3: normalized purity (HPLC)
Procedure: Chemical stability of compstatin analogues with cystathionine or disulfide bridge. Stability was assessed in three formulations at 50 mg/mL peptide, F1:20 mM phosphate pH 5.5, F2:20 mM phosphate pH 6.5 and F3:20 mM phosphate pH 7.5. The formulations were prepared by direct dissolution of peptide from lyophilized portions in the respective formulations. pH was adjusted to target with 1 M NaOH and 1 M HCl. Chemical stability was assessed under accelerated conditions (14 days, 40° C.) and evaluated as change in purity by reverse phase HPLC, and change in covalent oligomer content by denaturing SEC. The formulations were placed at 40° C. with analysis points at T=0, 7 and 14 days. On each time point a small volume was extracted and diluted to 2 mg/mL and tested by reverse phase HPLC and denaturing SEC. Purity was assessed by reverse phase HPLC using an Ultimate 3000 system for binary gradient application equipped with a Kinetix C18 column (cat. no. 00F-4462-Y0, 150 mm×3 mm, 2.6 μm) run at 0.5 ml/min with a gradient of buffer A (0.3% TFA, aq.) and buffer B (0.3% TFA, 90% MeCN, aq.) gradient from 40% B to 70% B over 20 min. Detection was done using a diode array detector set to 220 nm. Covalent oligomer formation was assessed by denaturing SEC (size exclusion chromatography) using an Ultimate 3000 system equipped with a TSKgel SuperSW 2000 column (cat. no. 818674, 300 mm×3 mm, 4 μm) run at 0.5 ml/min with isocratic flow of buffer A (0.1% TFA, 45% MeCN, aq.), 10 min. Detection was done using a diode array detector set to 215 nm. Compounds 126 and 156 were carefully weighed out and dissolved in formulations F1, F2 and F3 to a target concentration of 50 mg/mL. Once visually dissolved, concentration was confirmed by absorbance at 280 nm, and samples were placed in stability at 40° C. Samples for analysis were extracted on T=0, 7 and 14 days from a 40° C. climate chamber. The extracted volume was dissolved 1:25 (final concentration: 2 mg/mL) in 20 mM phosphate pH 5.5, 6.5 or 7.5 and measured by reverse phase HPLC and denaturing SEC by injection of 0.4 μL (column load […]). The resulting chromatograms were integrated to determine chemical purity by reverse phase HPLC and covalent oligomer content by denaturing SEC.

| Kd (Human C3) | half-life (in vivo) | t½ (in vivo) | Covalent oligomer content after 14 days 40° C. (%), F1 [3] | Purity after 14 days 40° C. (%), F1 [3] | Covalent oligomer content after 14 days 40° C. (%), F2 ([3]; F2: 20 mM phosphate pH 6.5) | Purity after 14 days 40° C. (%), F2 ([3]; F2: 20 mM phosphate pH 6.5) | Covalent oligomer content after 14 days 40° C. (%), F2 ([3]; F3: 20 mM phosphate pH 7.5) | Purity after 14 days 40° C. (%), F3 ([3]; F3: 20 mM phosphate pH 7.5) | Structure (SMILES) | IC50 [1] | Solubility, Condition 1 Acetate pH 4 [2] | Solubility, Condition 2 Acetate pH 5 [2] | Solubility, Condition 3 Phosphate pH 6 [2] | Solubility, Condition 4 Phosphate pH 7 [2] | Solubility, Condition 5 Phosphate pH 7.5 [2] |
| --- | --- | --- | --- | --- | --- | --- | --- | --- | --- | --- | --- | --- | --- | --- | --- |
| 0.0054 µM | 93.9 h | – | – | – | – | – | – | – | CC[C@H](C)[C@@H]1NC(=O)[C@@H](NC(=O)[C@H](Cc2ccc(O)cc2)NC(=O)[C@H](C)NC(=O)[C@H](CO)NC(C)=O)CSSC[C@@H](C(=O)N(C)CC(=O)N[C@@H](CCC(=O)O)C(=O)N[C@@H](CCCCNC(=O)CC[C@H](NC(=O)CNC(=O)CC[C@H](NC(=O)CCCCCCCCCCCCCCCCC(=O)O)C(=O)O)C(=O)O)C(N)=O)NC(=O)[C@H](CCCNC(=N)N)NC(=O)[C@H](Cc2c[nH]cn2)NC(=O)[C@H](CCC(=O)O)NC(=O)CNC(=O)[C@H](Cc2c[nH]c3ccccc23)NC(=O)[C@H](CC(=O)O)NC(=O)[C@H](CCC(N)=O)NC(=O)[C@H](Cc2cn(C)c3ccccc23)NC1=O [Compound 106] (Ac-SAYCI[Trp(1-Me)]QDWGEHRC[Sar]EK([γGlu-Gly-γGlu-C18 diacid])-NH2; disulfide 4-14) | < 250 nM | – | – | – | – | – |
| 0.011 µM | 78.7 h | 155 h | – | – | – | – | – | – | CC[C@H](C)[C@@H]1NC(=O)[C@@H](NC(=O)[C@H](Cc2ccc(O)cc2)NC(=O)[C@H](CCC(=O)O)NC(=O)[C@H](CO)NC(C)=O)CSSC[C@@H](C(=O)N(C)CC(=O)N[C@@H](CCC(=O)O)C(=O)NCC(=O)N[C@@H](C)C(=O)N[C@@H](CCCCNC(=O)COCCOCCNC(=O)CC[C@H](NC(=O)COCCOCCNC(=O)CNC(=O)CC[C@H](NC(=O)CCCCCCCCCCCCCCCCC(=O)O)C(=O)O)C(=O)O)C(N)=O)NC(=O)[C@H](CCCNC(=N)N)NC(=O)[C@H](Cc2c[nH]cn2)NC(=O)[C@H](CCC(=O)O)NC(=O)CNC(=O)[C@H](Cc2c[nH]c3ccccc23)NC(=O)[C@H](CC(=O)O)NC(=O)[C@H](CCC(N)=O)NC(=O)[C@H](Cc2cn(C)c3ccccc23)NC1=O [Compound 118] (Ac-SEYCI[Trp(1-Me)]QDWGEHRC[Sar]EGAK([AEEA-γGlu-AEEA-Gly-γGlu-C18 diacid])-NH2; disulfide 4-14) | < 100 nM | − (denotes lack of solubility at the given condition, as UV absorbance at 340 nm exceeds 0.1 AU and/or it is visibly turbid or contains particles.) | + (denotes solubility at the given condition, as determined by UV absorbance being less than 0.1 AU at 340 nm and the sample being clear when manually inspected.) | + (denotes solubility at the given condition, as determined by UV absorbance being less than 0.1 AU at 340 nm and the sample being clear when manually inspected.) | + (denotes solubility at the given condition, as determined by UV absorbance being less than 0.1 AU at 340 nm and the sample being clear when manually inspected.) | + (denotes solubility at the given condition, as determined by UV absorbance being less than 0.1 AU at 340 nm and the sample being clear when manually inspected.) |
| 0.0034 µM | 129 h | – | 0.7% | 93% | 0.0% | 97% | 0.1% | 97% | CC[C@H](C)[C@@H]1NC(=O)[C@@H](NC(=O)[C@H](Cc2ccccc2)NC(=O)[C@H](CCC(=O)O)NC(=O)[C@H](CO)NC(C)=O)CSCC[C@@H](C(=O)N[C@H](C(=O)N[C@@H](CCC(=O)O)C(=O)NCC(=O)N[C@@H](CCC(=O)O)C(=O)NCCOCCOCC(=O)N[C@@H](CCC(=O)O)C(=O)N[C@@H](CO)C(=O)N[C@@H](CCCCNC(=O)CC[C@H](NC(=O)CCCCCCCCCCCCCCCCC(=O)O)C(=O)O)C(N)=O)[C@@H](C)O)NC(=O)[C@H](CCCNC(=N)N)NC(=O)[C@H](Cc2c[nH]cn2)NC(=O)[C@H](CCC(=O)O)NC(=O)CNC(=O)[C@H](Cc2c[nH]c3ccccc23)NC(=O)[C@H](CC(=O)O)NC(=O)[C@H](CCC(N)=O)NC(=O)[C@H](Cc2cn(C)c3ccccc23)NC1=O [Compound 148, Ac-SEFA(1)I[1-Me-Trp]QDWGEHRhC(1)TEGE[Peg3]ES-K([17-carboxy-heptadecanoyl][γGlu])-NH2] (Ac-SEFCI[Trp(1-Me)]QDWGEHR[Abu(4-yl)]TEGE[AEEA]ESK([γGlu-C18 diacid])-NH2; thioether 4-14) | < 100 nM | – | – | – | – | – |
| – | 157 h | – | 30% | 80% | 77% | 24% | 61% | 33% | CC[C@H](C)[C@@H]1NC(=O)[C@@H](NC(=O)[C@H](Cc2ccc(O)cc2)NC(=O)[C@H](C)NC(=O)[C@H](CO)NC(=O)CNC(=O)[C@H](CCC(=O)O)NC(C)=O)CSSC[C@@H](C(=O)N(C)CC(=O)N[C@@H](CCC(=O)O)C(=O)N[C@@H](CCCCN)C(=O)N[C@@H](CCC(=O)N[C@@H](CCCCNC(=O)COCCOCCNC(=O)COCCOCCNC(=O)CC[C@H](NC(=O)CCCCCCCCCCCCCCCCC(=O)O)C(=O)O)C(N)=O)C(=O)O)NC(=O)[C@H](CCCNC(=N)N)NC(=O)[C@H](Cc2c[nH]cn2)NC(=O)[C@H](CCC(=O)O)NC(=O)CNC(=O)[C@H](Cc2c[nH]c3ccccc23)NC(=O)[C@H](CC(=O)O)NC(=O)[C@H](CCC(N)=O)NC(=O)[C@H](Cc2cn(C)c3ccccc23)NC1=O [Compound 111] (Ac-EGSAYCI[Trp(1-Me)]QDWGEHRC[Sar]EK[γGlu]K([AEEA-AEEA-γGlu-C18 diacid])-NH2; disulfide 6-16) | < 100 nM | − (denotes lack of solubility at the given condition, as UV absorbance at 340 nm exceeds 0.1 AU and/or it is visibly turbid or contains particles.) | − (denotes lack of solubility at the given condition, as UV absorbance at 340 nm exceeds 0.1 AU and/or it is visibly turbid or contains particles.) | + (denotes solubility at the given condition, as determined by UV absorbance being less than 0.1 AU at 340 nm and the sample being clear when manually inspected.) | + (denotes solubility at the given condition, as determined by UV absorbance being less than 0.1 AU at 340 nm and the sample being clear when manually inspected.) | + (denotes solubility at the given condition, as determined by UV absorbance being less than 0.1 AU at 340 nm and the sample being clear when manually inspected.) |

From patent US20220306695A1, “COMPSTATIN ANALOGUES AND THEIR MEDICAL USES” (priority 2019, published 2022)
